Data taken from the PolyMetriX glass transition set.
± gives the standard deviation of the reports.

SMILES	glass transition temperature [°C]
*c1ccc(S(=O)(=O)c2ccc(-n3nc(-c4ccc(Oc5ccc(-c6nn(*)c(=O)c7ccccc67)cc5)cc4)c4ccccc4c3=O)cc2)cc1 (repeat unit)	295.00
*Oc1ccc(OC(=O)Oc2ccc(C(C)(C)c3ccc(OC(*)=O)cc3)cc2)cc1 (repeat unit)	97.00
*CCCCCCNC(=O)c1ccc(C(=O)N*)c(Oc2ccc(Cl)cc2)c1 (repeat unit)	112.00
*CCCCCCNC(=O)C(OC)C(OC)C(=O)N* (repeat unit)	106.00
*CCCCCCCCCCCCCCc1ccc(-c2c(-c3ccccc3)cc(-c3ccc(-c4cc(-c5ccccc5)c(-c5ccc(*)cc5)c(-c5ccccc5)c4-c4ccccc4)cc3)c(-c3ccccc3)c2-c2ccccc2)cc1 (repeat unit)	185.00
*Oc1ccc(S(=O)(=O)c2ccc3cc(S(=O)(=O)c4ccc(Oc5c(C)cc(-c6cc(C)c(*)c(C)c6)cc5C)cc4)ccc3c2)cc1 (repeat unit)	280.00
*Oc1ccc(/N=C(\C)c2ccc(Oc3ccc(C(c4ccccc4)(c4ccccc4)c4ccc(Oc5ccc(/C(C)=N/c6ccc(*)cc6)cc5)cc4)cc3)cc2)cc1 (repeat unit)	150.00
*Nc1cc(NC(=O)c2ccc(C(*)=O)cc2)cc(C(=O)OCCOC(=O)/C=C/c2ccc(N(C)C)cc2)c1 (repeat unit)	198.00
*CCCCCCOc1ccc(/C=C/c2ccc(O*)cc2)cc1 (repeat unit)	76.00
*CCC[Si](*)(C)O[Si](C)(C)CCCOc1ccc(-c2ccc(C#N)cc2)cc1 (repeat unit)	-4.60
*C1C(=O)N(CCCCCCOc2ccc(-c3ccc(C#N)cc3)cc2)C(=O)C1* (repeat unit)	76.00
*c1cc(Br)c(-c2c(Br)cc(N3C(=O)c4ccc(-c5ccc6c(c5)C(=O)N(*)C6=O)cc4C3=O)cc2C(=O)OCCCCCCCCCC)c(C(=O)OCCCCCCCCCC)c1 (repeat unit)	116.00
*c1ccc(Oc2ccc(N3C(=O)c4cccc(Oc5c(C)cc(-c6cc(C)c(Oc7cccc8c7C(=O)N(*)C8=O)c(C)c6)cc5C)c4C3=O)cc2)cc1 (repeat unit)	298.00
*/C=C/C1CC(*)C(C#N)(CCCC)C1 (repeat unit)	87.00
*C(=O)OCC(COc1ccc(/N=N/c2ccc(C#N)cc2)cc1)OC(=O)c1ccc(*)s1 (repeat unit)	119.00
*Oc1ccc(/C(=C/c2cc(OC)c(/C=C(/c3ccc(*)cc3)c3ccc(F)cc3)cc2OC)c2ccc(F)cc2)cc1 (repeat unit)	187.00
*c1ccc(-c2ccc(-n3c(=O)c4cc5c(=O)n(*)c(=O)c5cc4c3=O)cc2OC)c(OC)c1 (repeat unit)	328.00
*OC(=O)c1ccc(C2(C)CC(C)(C)c3ccc(C(=O)Oc4ccc5c(c4)Oc4cc(*)ccc4C5(C)C)cc32)cc1 (repeat unit)	297.00
*CC(*)C(=O)OCc1ccc(C#N)cc1 (repeat unit)	44.00
*c1ccc(Sc2ccc(Sc3ccc(Sc4ccc(Sc5ccc(N6C(=O)c7ccc(Oc8ccc9c(c8)C(=O)N(*)C9=O)cc7C6=O)cc5)s4)s3)s2)cc1 (repeat unit)	158.50
*OC(*)C (repeat unit)	-19.50
*C(=O)Nc1ccc(-c2sc(-c3ccc(NC(=O)c4ccc5c(c4)C(=O)N(c4ccc(Oc6cccc7c(Oc8ccc(N9C(=O)c%10ccc(*)cc%10C9=O)cc8)cccc67)cc4)C5=O)cc3)c(-c3ccccc3)c2-c2ccccc2)cc1 (repeat unit)	340.00

SMILES	glass transition temperature [°C]
*c1ccc(Oc2ccc(Oc3ccc(N4C(=O)c5ccc(Oc6ccc7c(c6)C(=O)N(*)C7=O)cc5C4=O)cc3)cc2)cc1 (repeat unit)	247.50 ± 6.6
*Oc1ccc(C(c2ccccc2)(c2ccccc2)c2ccc(OC(=O)c3ccc(C(*)=O)cc3)cc2)cc1 (repeat unit)	210.00
*CCOC(=O)Nc1ccc(Cc2ccc(NC(=O)O*)cc2)cc1 (repeat unit)	139.00
*Nc1cc([N+](=O)[O-])c(NC(=O)CCCCCCC(*)=O)cc1/C=C/c1ccc(N(C)C)cc1 (repeat unit)	180.00
*CC(O)COc1ccc(C(C)(C)c2ccc(OCC(O)COc3cccc(NC(=O)Cc4cccc(CC(=O)Nc5cccc(O*)c5)c4)c3)cc2)cc1 (repeat unit)	119.00
*Oc1ccc(C2(c3ccc(OC(=O)CCCCC(*)=O)cc3)c3ccccc3-c3ccccc32)cc1 (repeat unit)	166.00
*CC(CS(C)(=O)=O)O* (repeat unit)	85.00
*CCN(CCOC(=O)c1ccc(C(=O)O*)c(OCCC)c1)c1ccc(/N=N/c2ccc(-c3nc4cc([N+](=O)[O-])ccc4[nH]3)cc2)cc1 (repeat unit)	152.00
*c1cc(-c2sc(-c3cc(CCCCCCCCCC)c(*)s3)cc2CCCCCCCCCC)c2cccccc1-2 (repeat unit)	22.50
*CC(*)(C)C(=O)OCC1CO1 (repeat unit)	68.50
*CCCC(=O)Nc1ccc(Oc2ccc(Oc3ccc(NC(=O)CCCN4C(=O)c5ccc(C(=O)c6ccc7c(c6)C(=O)N(*)C7=O)cc5C4=O)cc3)cc2)cc1 (repeat unit)	178.00
*c1ccc(Oc2cccc(Oc3ccc(N4C(=O)c5ccc(Oc6ccc(C(C)(C)c7ccc(Oc8ccc9c(c8)C(=O)N(*)C9=O)cc7)cc6)cc5C4=O)cc3)c2)cc1 (repeat unit)	246.00
*c1ccc(-c2cc(CCCCCCCC)c(-c3ccc(-c4ccc(-c5sc(-c6ccc([Si](C)(C)[Si](C)(C)[Si](C)(C)[Si](C)(C)[Si](C)(C)[Si](C)(C)[Si](C)(C)[Si](*)(C)C)s6)cc5CCCCCCCC)s4)s3)s2)s1 (repeat unit)	13.00
*CCN(CCOC(=O)Nc1ccc(Cc2ccc(NC(=O)O*)cc2)cc1)c1ccc(/N=N/c2ccc([N+](=O)[O-])cc2C)c(C)c1 (repeat unit)	130.00
*Oc1ccc(CC(NC(=O)CCc2ccc(OC(=O)COCCOCC(*)=O)cc2)C(=O)OCc2ccccc2)cc1 (repeat unit)	55.00
*CC(*)C(=O)OCC1(CC)COCOC1 (repeat unit)	42.00
*O[Si](*)(CCCOCCOCCOCCOC)CCCOCCOCCOCCOC (repeat unit)	-69.20
*CC(*)(C)C(=O)OCCOCCOc1ccc(/N=N/c2ccc(C#N)cc2)cc1 (repeat unit)	57.00
*Nc1ccc(Cc2ccc(NC(=O)/C=C/c3ccc(/C=C/C(*)=O)cc3)cc2)cc1 (repeat unit)	230.00
*CCCCCCN1C(=O)c2ccc(C(c3ccc4c(c3)C(=O)N(*)C4=O)(C(F)(F)F)C(F)(F)F)cc2C1=O (repeat unit)	155.00
*Oc1ccc(CC(NC(=O)CCc2ccc(OC(=O)COCCOCC(*)=O)cc2)C(=O)OC)cc1 (repeat unit)	63.00
*CCc1ccc(*)cc1 (repeat unit) [Poly(p-xylene)]	70 ± 10

SMILES	glass transition temperature [°C]
*Nc1cccc(NC(=C(C#N)C#N)c2cccc(C(*)=C(C#N)C#N)c2)c1 (repeat unit)	278.00
*c1ccc(*)c(C(=O)c2ccc(C)cc2)c1 (repeat unit)	202.00
*Cc1ccc(COP(=O)(/N=N/c2ccc(-c3ccc(/N=N/P(=O)(O*)OC)cc3)cc2)OC)cc1 (repeat unit)	48.00
*Nc1ccc(NC(=O)CCCCCCCCC(*)=O)cc1 (repeat unit)	125.00
*CCCCCCCCCCC(=O)Nc1ccc(Oc2cccc(NC(=O)CCCCCCCCCCN3C(=O)c4ccc(C(=O)c5ccc6c(c5)C(=O)N(*)C6=O)cc4C3=O)c2)cc1 (repeat unit)	126.00
*=Nc1ccc(Cc2ccc(NC(=*)CC)cc2)cc1 (repeat unit)	130.00
*Oc1ccc(-c2ccc(OC3(F)C(*)(F)C(F)(F)C3(F)F)cc2)cc1 (repeat unit)	161.00
*CC(*)(C)C(=O)OCCOCCOC (repeat unit)	57.00
*CCCCOc1ccc(OCCCCc2nnc(-c3ccc(-c4nnc(*)o4)cc3)o2)c(C)c1 (repeat unit)	129.00
*CC(*)(CC(=O)OCCCCl)C(=O)OCCCCl (repeat unit)	47.00
*C(=O)Nc1cc(NC(=O)c2ccc3c(c2)C(=O)N(c2cc(-c4nc5ccccc5o4)cc(N4C(=O)c5ccc(*)cc5C4=O)c2)C3=O)cc(-c2nc3ccccc3[nH]2)c1 (repeat unit)	371.00
*C(=O)c1ccc(Oc2c(C)cc(-c3cc(C)c(Oc4ccc(C(=O)c5ccc6nc(*)ccc6c5)cc4)c(C)c3)cc2C)cc1 (repeat unit)	180.00
*CC(*)(C)C(=O)OCCCCOc1ccc(OC(=O)c2ccc(OCCCCCCCC)cc2)cc1 (repeat unit)	10.00
*Oc1ccc(C(C)(C)C)cc1Oc1ccc(S(=O)(=O)c2ccc(*)cc2)cc1 (repeat unit)	180.50
*CC(*)c1cc(Br)ccc1OCCCCC (repeat unit)	49.00
*CC(*)C(=O)OCCCCC (repeat unit)	-57.00
*CCC[Si](C)(C)O[Si](C)(C)CCCN1C(=O)c2ccc(C(=O)c3ccc4c(c3)C(=O)N(*)C4=O)cc2C1=O (repeat unit)	68.00
*C(=O)Nc1ccc(S(=O)(=O)c2ccc(NC(=O)c3ccc4c(c3)C(=O)N(c3cc(-c5nc6ccccc6s5)cc(N5C(=O)c6ccc(*)cc6C5=O)c3)C4=O)cc2)cc1 (repeat unit)	357.00
*CC1CCCC(COC(=O)c2ccc(C(=O)O*)cc2)C1 (repeat unit)	75.00
*CC(*)c1ccc(OC)cc1 (repeat unit) [Poly(p-methoxy styrene) ]	89 ± 12
*c1cccc(N2C(=O)c3cccc(Oc4c(C)cc(Cc5cc(C)c(Oc6cccc7c6C(=O)N(*)C7=O)c(C)c5)cc4C)c3C2=O)c1 (repeat unit)	269.00
